In US8318447B2, “Use of bitter taste receptor to screen for compounds that offset the bitter taste of chlorogenic lactone containing coffee compositions” (Senomyx Inc., priority 2005, dated 2012):

Assays:
Assay type in all cases: cell-based
[1] = molecular target: T1, hT2R8 (Homo sapiens, UniProt Q9NYW2); assay: calcium imaging of HEK293 cells transfected with hT2R8 and chimeric G protein G16gust44; details: for response of HEK-293 cells that express hT2R8: 2 mM concentrations, FIG. 3; for response of hT2R8 (increase in intracellular calcium concentration): different concentrations, FIG. 2 / FIG. 4
T1 construct: expressed in transfected cells; host or cells: human embryonic kidney (HEK293) cells, transient transfection
T1 sequence (Q9NYW2 1-309): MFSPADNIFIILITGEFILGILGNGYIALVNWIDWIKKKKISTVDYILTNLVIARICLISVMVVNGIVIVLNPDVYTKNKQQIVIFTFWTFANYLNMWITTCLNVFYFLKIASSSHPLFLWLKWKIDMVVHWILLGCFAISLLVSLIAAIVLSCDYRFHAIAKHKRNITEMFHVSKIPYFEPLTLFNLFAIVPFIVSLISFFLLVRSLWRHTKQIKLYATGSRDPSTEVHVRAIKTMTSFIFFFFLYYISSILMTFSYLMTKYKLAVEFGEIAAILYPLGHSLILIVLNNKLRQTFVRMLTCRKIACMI
Method: (§1) More particularly, the present inventors transfected HEK293 cells with a particular hT2R together with a chimeric G protein (G 16gust44) which comprises the Gα16 G protein sequence modified by the replacement of carboxy-44 amino acid residues with those of gustducin, and recorded responses of these cells to specific bitter ligands by calcium imaging methods.
(§2) Activation of these receptors by 3CoQAL is measured in a cell-based assay detecting changes in intracellular calcium concentration. In brief, human embryonic kidney cells are seeded in 48-well tissue culture plates. 24 hours later, the cells are transiently transfected with plasmid containing either the hT2R8, hT2R14 or hT2R54 nucleic acid sequence, and plasmid containing a chimeric G protein (G16gust44). Another 24 hours later, the cells are incubated with a fluorescent dye specific for calcium (Fluo-4 or Fura-2; Molecular Probes) that provides a fast, simple and reliable fluorescence-based method for detecting changes in calcium concentration inside the cell. Activation of the T2Rs elicits a signaling cascade leading to the activation of PLC and a subsequent increase in intracellular calcium concentration. This increase in calcium concentration changes the fluorescence properties of the calcium dye inside the cells. These changes are monitored using fluorescence microscopy and a specific design software (Imaging Workbench, Axon).
as §2, with “this receptor” for “these receptors”, “3CQAL and 4CQAL” for “3CoQAL”
as §2, with “this receptor” for “these receptors”, “4FQAL” for “3CoQAL”, “brief” for “brief,”

[2] = molecular target: T2, hT2R14 (Homo sapiens, UniProt Q9NYV8); assay: calcium imaging of HEK293 cells transfected with hT2R14 and chimeric G protein G16gust44; details: for response of HEK-293 cells that express hT2R14: 2 mM concentrations, FIG. 3; for response of hT2R14 (increase in intracellular calcium concentration): different concentrations, FIG. 2
T2 construct: expressed in transfected cells; host or cells: human embryonic kidney (HEK293) cells, transient transfection
T2 sequence (Q9NYV8 1-317): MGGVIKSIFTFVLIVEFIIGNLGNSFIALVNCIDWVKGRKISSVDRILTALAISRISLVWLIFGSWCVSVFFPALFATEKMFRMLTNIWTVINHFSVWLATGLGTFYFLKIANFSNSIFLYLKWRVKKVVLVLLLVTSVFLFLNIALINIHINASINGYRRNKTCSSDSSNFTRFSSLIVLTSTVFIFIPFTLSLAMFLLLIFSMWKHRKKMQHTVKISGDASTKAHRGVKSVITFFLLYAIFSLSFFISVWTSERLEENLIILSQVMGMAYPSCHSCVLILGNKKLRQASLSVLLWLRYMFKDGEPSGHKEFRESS
Method: as §1, §2
as §2, with “this receptor” for “these receptors”, “3CQAL and 4CQAL” for “3CoQAL”
as §2, with “this receptor” for “these receptors”, “4FQAL” for “3CoQAL”, “brief” for “brief,”

[3] = molecular target: T3, hT2R54 (Homo sapiens, UniProt P59534); assay: calcium imaging of HEK293 cells transfected with hT2R54 and chimeric G protein G16gust44; details: for response of HEK-293 cells that express hT2R54: 2 mM concentrations, FIG. 3; for response of hT2R54 (increase in intracellular calcium concentration): different concentrations, FIG. 2 / FIG. 4
T3 construct: expressed in transfected cells; host or cells: human embryonic kidney (HEK293) cells, transient transfection
T3 sequence (P59534 18-338): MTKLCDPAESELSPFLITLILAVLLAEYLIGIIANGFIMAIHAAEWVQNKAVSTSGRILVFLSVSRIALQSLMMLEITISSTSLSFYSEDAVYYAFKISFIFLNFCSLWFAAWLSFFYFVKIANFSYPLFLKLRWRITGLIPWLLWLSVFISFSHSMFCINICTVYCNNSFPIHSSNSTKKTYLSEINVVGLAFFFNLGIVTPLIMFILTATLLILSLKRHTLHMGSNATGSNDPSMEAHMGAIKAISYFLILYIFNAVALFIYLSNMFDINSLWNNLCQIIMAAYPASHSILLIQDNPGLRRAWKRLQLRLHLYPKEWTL
Method: as §1, §2
as §2, with “this receptor” for “these receptors”, “3CQAL and 4CQAL” for “3CoQAL”
as §2, with “this receptor” for “these receptors”, “4FQAL” for “3CoQAL”, “brief” for “brief,”

| SMILES | response of HEK-293 cells that express hT2R8 [1] | response of HEK-293 cells that express hT2R14 [2] | response of HEK-293 cells that express hT2R54 [3] | response of hT2R8 (increase in intracellular calcium concentration) [1] | response of hT2R14 (increase in intracellular calcium concentration) [2] | response of hT2R54 (increase in intracellular calcium concentration) [3] |
| --- | --- | --- | --- | --- | --- | --- |
| O=C(C=Cc1ccc(O)cc1)OC1CC2(O)CC(OC2=O)C1O (stereo not drawn) [3CoQAL] | – | – | – | responded | responded | responded |
| O=C(/C=C/c1ccc(O)c(O)c1)O[C@@H]1C[C@]2(O)C[C@@H](OC2=O)[C@@H]1O [3CQAL] | specifically respond | specifically respond | specifically respond | – | – | – |

Next, values leading:

| response of HEK-293 cells that express hT2R8 [1] | response of HEK-293 cells that express hT2R14 [2] | response of HEK-293 cells that express hT2R54 [3] | response of hT2R8 (increase in intracellular calcium concentration) [1] | response of hT2R14 (increase in intracellular calcium concentration) [2] | response of hT2R54 (increase in intracellular calcium concentration) [3] | SMILES |
| --- | --- | --- | --- | --- | --- | --- |
| specifically respond | specifically respond | specifically respond | – | – | – | O=C(C=Cc1ccc(O)c(O)c1)OC1C(O)CC2(O)CC1OC2=O (stereo not drawn) [4CQAL] |
| do not respond | do not respond | do not respond | do not respond | do not respond | do not respond | OC[C@H]1O[C@@](CO)(O[C@H]2O[C@H](CO)[C@@H](O)[C@H](O)[C@H]2O)[C@@H](O)[C@@H]1O [sucrose] |
| – | – | – | responded specifically | specifically activate | responded specifically | COc1cc(/C=C/C(=O)O[C@@H]2[C@H](O)C[C@]3(O)C[C@H]2OC3=O)ccc1O [4FQAL] |
